In article PMC9181126, “Design, Synthesis, Molecular Docking Analysis and Biological Evaluations of 4-[(Quinolin-4-yl)amino]benzamide Derivatives as Novel Anti-Influenza Virus Agents” (International Journal of Molecular Sciences, 2022):

What was measured:
PA-PB1 endonuclease [1] = assay: Experimental PA-PB1 inhibitory activity of literature inhibitors (training and test set); type: biochemical, influenza virus; details: class of the experimental IC50
PA-PB1 endonuclease [2] = test system: PA-PB1 endonuclease; parameters: method as in supplement 1-7; details: training and test set compounds collected from literature; ref supplement 1-7; read-out: IC50 value Experimental (PA-PB1 endonuclease inhibitors); cited from earlier work
[3] = target: ribonucleoprotein (RNP) of influenza virus (Influenza A virus, UniProt P15659); assay: cell-based; details: HEK-293T; concentration 100 µM; read-out: RNP Reconstitution Assay Inhibition Rate
[4] = test system: influenza virus A/WSN/33 (H1N1); assay: organism not typed; type: cell-based; details: MDCK, 72 h; read-out: Cytopathic Effect Assay (A/WSN/33, H1N1) EC50
[5] = test system: influenza virus A/WSN/33 (H1N1); assay: Plaque inhibition assay in MDCK cells; type: cell-based

| SMILES | Activity scale Experimental (PA-PB1 endonuclease [1]) | IC50 (PA-PB1 endonuclease [2]) [µM] | inhibition at 100 µM [3] [%] | EC50 [4] [µM] | IC50 ([5]; MDCK cells) [µM] | inhibition at 100 µM ([5]; MDCK, concentration 100 µM, read-out: Plaque Inhibition Assay (A/WSN/33, H1N1) Inhibition Rate) [%] |
| --- | --- | --- | --- | --- | --- | --- |
| NC(=O)c1c(NC(=O)c2cnn3c(C(F)F)cc(-c4ccccc4)nc23)sc2c1CCC2 [Compound H32] | +++ (+++, IC50 10 to 100 μM (active)) | 25.4 | – | – | – | – |
| NC(=O)c1c(NC(=O)c2cnn3c(C(F)F)cc(-c4ccccc4)nc23)sc2c1CCC2 [Compound H16] | +++ (+++, IC50 10 to 100 μM (active)) | 25.4 | – | – | – | – |
| O=C(Nc1sc2c(c1C(=O)Nc1nccs1)CCCCC2)c1ccccc1O [Compound H33] | +++ (+++, IC50 10 to 100 μM (active)) | 69 | – | – | – | – |
| O=C(Nc1sc2c(c1C(=O)Nc1ccc(Cl)cc1)CCCCC2)c1ccccc1O [Compound H12] | +++ (+++, IC50 10 to 100 μM (active)) | 18 | – | – | – | – |
| CCCCOc1ccc(C(=O)Nc2nc3n(n2)C(c2ccccc2)C=C(C)N3)cc1 (stereo not drawn) [Compound H18] | +++ (+++, IC50 10 to 100 μM (active)) | 37 | – | – | – | – |
| CC(c1ccccc1)n1nnnc1C(c1ccsc1)N1CCC(n2c(=O)[nH]c3ccccc32)CC1 (stereo not drawn) [Compound H28] | ++++ (++++, IC50 ≤ 10 μM (most active)) | 7.6 | – | – | – | – |
| CCOc1ccc(C(=O)Nc2nc3n(n2)C(c2ccccc2)C=C(C)N3)cc1 (stereo not drawn) [Compound H23] | ++ (++, IC50 100 to 150 μM (moderately active)) | 139 | – | – | – | – |
| O=C(Nc1sc2c(c1C(=O)Nc1ccccn1)CCCCC2)c1ccc(O)cc1 [Compound H13] | +++ (+++, IC50 10 to 100 μM (active)) | 26 | – | – | – | – |
| Cc1onc(-c2ccccc2)c1C(=O)N1CCN(c2ccc([N+](=O)[O-])cc2Cl)CC1 [nucleozin, reference compound] | – | – | 92.9 | 0.21 ± 0.15 | 0.15 ± 0.11 | 99.5 |
| Cc1ccc(-c2cc(-c3ccccc3)nc(SC(C)C(=O)Nc3ccc(C)c(C)c3)c2C#N)cc1 (stereo not drawn) [Compound H38] | + (+, IC50 >150 μM (inactive)) | 180 | – | – | – | – |
| Cc1cc(-c2ccccc2)n2nc(C(=O)Nc3ccccc3C(N)=O)nc2n1 [Compound H05] | +++ (+++, IC50 10 to 100 μM (active)) | 11 | – | – | – | – |
